# Where two headings read alike, the source gives them in different places.
# Legend:
# histidine kinase HK853 [1] = target: T1, histidine kinase HK853 (Thermotoga maritima, UniProt Q9WZV7); conditions: for inhibition of HK853: non-native bases or nucleosides, in words
# T1 sequence (Q9WZV7 232-489): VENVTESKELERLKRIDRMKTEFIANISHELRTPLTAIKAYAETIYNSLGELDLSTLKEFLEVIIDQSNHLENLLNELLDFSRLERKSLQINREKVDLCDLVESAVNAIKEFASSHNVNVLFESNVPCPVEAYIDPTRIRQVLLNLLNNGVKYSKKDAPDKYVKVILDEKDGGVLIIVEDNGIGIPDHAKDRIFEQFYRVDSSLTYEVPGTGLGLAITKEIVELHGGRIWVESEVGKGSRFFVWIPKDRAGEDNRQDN
# Protocol: (§1) Triton X-100 was premixed with reaction buffer to yield 0.1% (v/v) in final 25-μL reactions. Samples were mixed and incubated in the dark at RT for 1 h before quenching with 8.6 μL 2×SDS-PAGE sample loading buffer and loading 10 μL on a 10%0/stacking gel. After SDS-PAGE, in-gel fluorescence detection elucidated HK853 activity, and silver staining of the gels ensured even protein loading. Integrated density values of the fluorescent gel bands were normalized as “% Activity” with respect to a control that contained no inhibitor. Data were plotted in GraphPad Prism (available from GraphPad Software, San Diego, Calif.) with relation to the log of molar inhibitor to determine IC50 values, using EQUATION 1.
# HK853 = target: T2, HK853 (Thermotoga maritima, UniProt Q9WZV7); conditions: for inhibition of HKs: in words; for IC50 values (95% confidence interval), n = 2: riluzole analogs, second TABLE 3, 0.1% Triton X-100
# T2 sequence (Q9WZV7 232-489): T1 sequence (Q9WZV7 232-489)
# Protocol: Triton X-100 was premixed with reaction buffer to yield 0.1% (v/v) in final 25-μL reactions. […] Samples were mixed and incubated in the dark at RT for 1 h before quenching with 8.6 μL 4×SDS-PAGE sample loading buffer and loading 15 μL on a 10% stacking gel. After SDS-PAGE, in-gel fluorescence detection elucidated HK853 activity, and coomassie staining of the gels ensured even protein loading. Integrated density values of the fluorescent gel bands were normalized as “% Activity” with respect to a control that contained no inhibitor.
# histidine kinase HK853 [2] = target: T1, histidine kinase HK853; assay: biochemical
# Protocol: as §1
# [3] = purine derivatives, TABLE 2, N/I = no inhibition
# [4] = phenyl-adenine derivatives, first TABLE 3, N/I = no inhibition
# [5] = IC50, purine derivatives, TABLE 2, N/I = no inhibition
# [6] = adenine derivatives, TABLE 1, N/I = no inhibition was observed
# [7] = IC50, sulfonyl fluoride side chains, Example 4
smiles,measurement,setting,value
"Nc1nc2nc[nH]c2c(=O)[nH]1 [Guanine, reference compound]",inhibition of HK853,histidine kinase HK853 [1],did not appear to inhibit HK853
Nc1nc2cc(Br)c(Br)cc2s1 [Rilu-11],inhibition of HKs,HK853,did not significantly inhibit HKs
same,"IC50 values (95% confidence interval), n = 2",HK853,No Inhibition
Nc1ncnc2c1ncn2C1OC(CO)C(O)C1O (stereo not drawn) [Compound C12],IC50,histidine kinase HK853 [2],445 µM
Cn1cnc2c(N)ncnc21 [Compound C13],IC50,"histidine kinase HK853 [2]; IC50, adenine derivatives, TABLE 1, N/I = no inhibition was observed",145 µM
c1ccc(Nc2ncnc3nc[nH]c23)cc1 [Compound C15],IC50,histidine kinase HK853 [2],7.6 µM
Cn1cnc2ncnc(N)c21 [CW30],IC50,histidine kinase HK853 [1]; [3],N/I
Clc1ccc(Nc2ncnc3[nH]cnc23)cc1 [CW37],IC50,histidine kinase HK853 [2],1700 µM
OCC1OC(n2cnc3c(Nc4ccccc4)ncnc32)C(O)C1O (stereo not drawn) [CW35],IC50,histidine kinase HK853 [1]; [4],N/I
"OC[C@H]1O[C@@H](n2cnc3c(O)ncnc32)[C@H](O)[C@@H]1O [Inosine, reference compound]",inhibition of HK853,histidine kinase HK853 [1],did not appear to inhibit HK853
Cn1cnc2c(N)ncnc21 [CW29],IC50,histidine kinase HK853 [2]; [5],150 µM
Nc1nc(Cl)c2nc[nH]c2n1 [CW20],IC50,histidine kinase HK853 [1]; [3],118 µM
OCC1OC(n2cnc3c(Cl)ncnc32)C(O)C1O (stereo not drawn) [Compound C18],IC50,histidine kinase HK853 [1]; [6],N/I
Cn1cnc2ncnc(N)c21 [Compound C26],IC50,histidine kinase HK853 [1]; [6],N/I
Nc1nc(F)nc2[nH]cnc12 [CW24],IC50,histidine kinase HK853 [1]; [3],310 µM
OCC1OC(n2cnc3c(Cl)ncnc32)C(O)C1O (stereo not drawn) [CW19],IC50,histidine kinase HK853 [1]; [3],N/I
Nc1ncnc2c1ncn2C1OC(COC(=O)c2ccccc2)C(O)C1O (stereo not drawn),IC50,histidine kinase HK853 [2],192 µM
CCCN(CCC)c1ncnc2c1ncn2C1OC(CO)C(O)C1O (stereo not drawn) [Compound C19],IC50,histidine kinase HK853 [2],1100 µM
Nc1nc2c(Cl)cc(Cl)cc2s1 [Rilu-10],inhibition of HKs,HK853,did not significantly inhibit HKs
same,"IC50 values (95% confidence interval), n = 2",HK853,No Inhibition
Fc1ccc(Nc2ncnc3[nH]cnc23)cc1 [CW38],IC50,histidine kinase HK853 [2],1900 µM
"Nc1ncnc2c1ncn2C1OC(COC(=O)c2ccc(S(=O)(=O)F)cc2)C(O)C1O (stereo not drawn) [6-O-benzoyl adenosine, R=SO2F]",IC50,histidine kinase HK853 [2]; [7],5.3 µM
Clc1nc(Nc2ccccc2)c2nc[nH]c2n1 [CW36],IC50,histidine kinase HK853 [1]; [4],N/I
"Nc1nc2c(ncn2[C@@H]2O[C@H](CO)[C@@H](O)[C@H]2O)c(=O)[nH]1 [Guanosine, reference compound]",inhibition of HK853,histidine kinase HK853 [1],did not appear to inhibit HK853
Nc1nc(Cl)nc2[nH]cnc12 [CW22],IC50,histidine kinase HK853 [1]; [3],156 µM
Nc1nc(F)nc2c1ncn2C1OC(CO)C(O)C1O (stereo not drawn) [CW25],IC50,histidine kinase HK853 [2]; [5],218 µM
Nc1nc2ccc(NCc3ccc(S(=O)(=O)F)cc3)cc2s1 [riluzole analog with benzyl SO2F],IC50,histidine kinase HK853 [2]; [7],2.1 µM
